Assay results: patent publication US8410166B2, “Fused bicyclic compound” (Mitsubishi Tanabe Pharma Corporation, priority 2007, dated 2013)
pKi: −log10 of the molar value.

Molecular target: T1, mineralocorticoid receptor (MR) (Rattus norvegicus, UniProt P22199)
T1 construct: the homogenate was centrifuged at 100,000×g for 1 hour to give a supernatant as a kidney cytosol fraction; from tissue; host or cells: kidney cytosol fraction of adrenalectomised male Sprague-Dawley rats
T1 sequence (P22199 1-981): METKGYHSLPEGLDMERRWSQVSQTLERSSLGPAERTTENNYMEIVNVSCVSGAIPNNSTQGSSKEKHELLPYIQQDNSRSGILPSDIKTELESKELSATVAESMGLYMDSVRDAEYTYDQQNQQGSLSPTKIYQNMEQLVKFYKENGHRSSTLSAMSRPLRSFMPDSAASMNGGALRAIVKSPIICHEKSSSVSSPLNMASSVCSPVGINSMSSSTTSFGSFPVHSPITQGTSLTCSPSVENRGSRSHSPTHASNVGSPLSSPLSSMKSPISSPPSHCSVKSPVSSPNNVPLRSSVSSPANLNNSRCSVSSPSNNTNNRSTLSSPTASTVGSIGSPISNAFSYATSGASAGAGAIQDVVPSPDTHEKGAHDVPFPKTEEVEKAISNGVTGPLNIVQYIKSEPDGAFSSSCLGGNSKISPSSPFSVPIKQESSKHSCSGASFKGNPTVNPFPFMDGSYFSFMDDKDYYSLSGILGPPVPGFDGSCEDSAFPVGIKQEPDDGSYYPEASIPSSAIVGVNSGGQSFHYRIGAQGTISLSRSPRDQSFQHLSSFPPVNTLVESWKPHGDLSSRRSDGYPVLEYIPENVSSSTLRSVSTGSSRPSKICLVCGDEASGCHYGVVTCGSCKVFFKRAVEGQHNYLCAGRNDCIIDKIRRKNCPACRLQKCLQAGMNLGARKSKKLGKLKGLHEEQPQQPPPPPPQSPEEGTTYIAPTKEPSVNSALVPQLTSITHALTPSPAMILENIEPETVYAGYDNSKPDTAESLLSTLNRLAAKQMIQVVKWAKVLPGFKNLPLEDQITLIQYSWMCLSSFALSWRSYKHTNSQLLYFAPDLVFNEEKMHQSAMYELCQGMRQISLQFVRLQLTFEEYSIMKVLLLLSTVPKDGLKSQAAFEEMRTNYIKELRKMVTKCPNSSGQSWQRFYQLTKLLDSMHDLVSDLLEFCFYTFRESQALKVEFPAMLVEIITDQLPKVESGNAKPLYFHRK
Test: Aldosterone receptor binding assay (rat kidney cytosol, [3H]aldosterone)
Conditions: MR derived from rat kidney, 3H-aldosterone; read-out: Ki values in 3H-aldosterone binding to MR
Description: The compound of the present invention has a high affinity to a mineralocorticoid receptor (MR) of mammals. For example, in a biding assay using a rat MR and ^3H-aldosterone, which was conducted according to a method disclosed in The Journal of Pharmacology and Experimental Therapeutics, 1987; 240: p. […] Accordingly, the compound [I] is useful for treating and/or preventing the diseases associated with MR, e.g., circulatory system disease including hypertension and heart failure etc.
[Aldosterone Receptor Binding Assay]
(1) Preparation of Kidney Cytosol Fraction:
Kidneys derived from post-adrenalectomy Sprague-Dawley male rats (7 weeks old) were homogenized in the following buffer solution and the homogenate was centrifuged at 100,000×g for 1 hour to give a supernatant as a kidney cytosol fraction (protein concentration: 15 mg/mL) for the present biding assay.
Composition of Buffer Solution:
50 mM Tris-HCl (pH 7.5), 250 mM Sucrose, 50 mM Potassium chloride, 3 mM Magnesium chloride, 20 mM Sodium molybdate and 1 mM Mercaptoethanol
A mixture of 5 μL of a solution of each test compound in dimethylsulfoxide, 200 μL of kidney cytosol fraction, 50 μL of physiological saline (or 50 μL of unlabeled aldosterone solution (final concentration: 1 μM) and 50 μL of [^3H] aldosterone solution (ca. 2 nM) was incubated in a test tube at 4° C. overnight. Thereto was added 100 μL of dextrane-coated charcoal/10 mM Tris-HCl buffer and the mixture was incubated at 4° C. for 30 minutes. The reaction mixture was centrifuged at 3000 rpm for 10 minutes and to the supernatant (150 μL) was added 5 mL of a scintillater (Clearsol I, Nakarai Tesque). The radioactivity was measured by a liquid scintilation counter (TRI CARB 2200C A, Packard). The concentration of each test compound required to produce 50% inhibition of aldosterone-binding to receptors (IC50; μM) was calculated on the basis of the above quantitated radioactivity. Moreover, the dissociation constant (Ki) of each test compound was calculated on Cheng and Prusoff s equation (Ki=IC50/(1+[L]/Kd), wherein [L] is [^3H]aldosterone concentration and Kd is the affinity constant of aldosterone).

SMILES	pKi
CC1(C)N=C(c2ccc(F)cc2)c2c(F)cc(N)cc2O1 [5-fluoro-4-(4-fluorophenyl)-2,2-dimethyl-2H-1,3-benzoxazin-7-amine]	> 5.00
CC1(C)Oc2cc(N)ccc2C(c2ccc(F)cc2)=C1C#N [7-amino-4-(4-fluorophenyl)-2,2-dimethyl-2H-chromen-3-carbonitrile]	> 5.00

Second part, the compound after the results:

pKi	SMILES
> 5.00	CC1(C)N=C(c2ccc(Cl)cc2)c2ccc(NS(C)(=O)=O)cc2O1 [Example 1, N-[4-(4-chlorophenyl)-2.2-dimethyl-2H-1,3-benzoxazin-7-yl]methanesulfonamide]
> 5.00	CC1=C(c2ccc(F)cc2)c2ccc(NS(C)(=O)=O)cc2OC1(C)C [Example 6, N-[4-(4-fluorophenyl)-2,2,3-trimethyl-2H-chromen-7-yl]methanesulfonamide]

Same assay, conditions: [3H]aldosterone binding to MR of rat kidney cytosol fraction; Ki by Cheng-Prusoff; read-out: Ki

SMILES	pKi
CC1(C)N=C(c2ccccc2)c2ccc(NS(C)(=O)=O)cc2O1 [Example 10]	6.00 to 6.30
Cc1cc(NS(C)(=O)=O)cc2c1C(c1ccc(F)cc1)=NC(C)(C)O2 [Example 47]	> 6.30
CC1(C)Oc2cc(NS(C)(=O)=O)ccc2C(c2ccc(Cl)c(F)c2)=C1C#N [Example 53]	> 6.30
CS(=O)(=O)Nc1ccc2c(c1)OC1(CCCC1)C(C#N)=C2c1ccc(F)cc1 [Example 55(2) compound (a), N-[3-cyano-4-(4-fluorophenyl)spiro[chromen-2′,1′-cyclopentan]-7-yl]methanesulfonamide]	> 6.30
CNS(=O)(=O)c1ccc2c(c1)OC(C)(C)N=C2c1ccc(F)cc1 [Example 61, N,2,2-trimethyl-4-(4-fluorophenyl)-2H-1,3-benzoxazin-7-sulfonamide]	6.00 to 6.30

Other lines, results leading:

pKi	SMILES
> 6.30	CC1(C)N=C(c2ccc(Cl)cc2)c2ccc(NS(C)(=O)=O)cc2O1 [Example 1, N-[4-(4-chlorophenyl)-2.2-dimethyl-2H-1,3-benzoxazin-7-yl]methanesulfonamide]
> 6.30	CC1=C(c2ccc(F)cc2)c2ccc(NS(C)(=O)=O)cc2OC1(C)C [Example 6, N-[4-(4-fluorophenyl)-2,2,3-trimethyl-2H-chromen-7-yl]methanesulfonamide]
> 6.30	CC1(C)CC(c2ccc(F)cc2)c2ccc(NS(C)(=O)=O)cc2O1 (centres unmarked) [Example 8, N-[4-(4-fluorophenyl)-2,2-dimethyl-3,4-dihydro-2H-chromen-7-yl]methanesulfonamide]
> 6.30	CC1(C)N=C(c2csc3ccccc23)c2ccc(NS(C)(=O)=O)cc2O1 [Example 26]
> 6.30	Cc1cc(Cl)ccc1C1=CC(C)(C)Oc2cc(NS(C)(=O)=O)ccc21 [Example 42]
